Test results as given in US20040167028A1, “Method of introducing a substance into plant tissue” (HAMAMATSU PHOTONICS K.K., priority 2002, published 2004).
Like-named read-outs stand apart in the source and are kept apart here.

Test system: tomato plant
Text: According to the method of the invention, information relating to the amount, speed and site of introduction of the substance introduced into the plant tissue can be obtained, for example, using a positron imaging apparatus. With a positron imaging apparatus, information on the measuring target is obtained by introducing a substance labeled with positron-emitting RI as a tracer into a living body, and measuring the pair of gamma-rays produced as the positrons emitted from the RI-labeled substance are annihilated against electrons in the substance (see, for example, Japanese Patent Application Laid-Open No. 9-33658).
FIG. 5 is a view showing the basic construction of a positron imaging apparatus. The apparatus shown in this drawing comprises a pair of two-dimensional radiation detectors 60 and 70. The two-dimensional radiation detectors 60 and 70 in turn comprise scintillator arrays 61,71 each composed of a plurality of scintillators, and photodetectors 62,72 for detection of scintillation light generated by incidence of the gamma-rays on the scintillator arrays 61,71. The radiation detectors 60,70 are housed in separate detector cases 65,75 with the radiation incidence planes of the scintillator arrays 61,71 facing each other.
In this construction, a pair of gamma-rays emitted from a measuring target B (a plant, according to the invention) placed on a prescribed measuring surface S between the radiation detectors 60,70 are each detected by the radiation detectors 60,70. The detection signals are outputted through connected circuit systems 63,73 having amplifier circuits, etc. for amplification of the detection signals. The outputted amplification signals are inputted into a signal processing circuit 80, and the signal processing circuit 80 identifies coincident electron/positron annihilation events and calculates the position of the annihilation, based on the detection signals from the two radiation detectors 60,70.
Tomato (Merryroad variety) approximately 4 weeks after sprouting was used as the test plant. After removing a leaf at the end of the 6th side branch from the bottom of the main stem, the end was cut in the water for use as the absorption site (conductive tissue-exposed side branch) FIG. 6 is a schematic view showing the arrangement of the main stem 3 and side branches 2 of the tomato plant used in this experiment. The absorption site was located at the end of the side branch 2 extending toward the left in FIG. 6.
FIG. 7 is an integrated image obtained from the positron imaging apparatus, with the integrated image positioned to correspond to the positions of the main stem and side branch in FIG. 6.
Next, all of the leaves on the substance-absorbed side branch 2 of the tomato plant used in Comparative Example 1 were removed. […] FIG. 8 is the integrated image obtained from the positron imaging apparatus, with the integrated image positioned to correspond to the positions of the, main stem and side branch in FIG. 6.
Using a different tomato plant from that used in Example 1 (the same variety but a different plant), a leaf at the end of the 6th side branch from the bottom of the main stem was removed in the same manner as Example 1, and the end was cut in the water for use as the absorption site in the same manner as Comparative Example 1. The other leaves on that side branch were shaded by covering them with aluminum foil to inhibit transpiration. FIG. 10 is a schematic view showing the arrangement of the main stem 3 and side branches 2 of the tomato plant used in this experiment. The absorption site was located at the end of the upper side branch 2 of the side branches 2 extending toward the left in FIG. 10.

Compound: O=[N+]([O-])O [^13N-labeled nitric acid]
- migration of the substance in the main stem (integrated image) (Comparative Example 1, side branch with leaves, no inhibition of transpiration, FIG. 7): almost all of the substance migrated downward in the main stem
- introduction of the substance into the side branch (integrated image) (Comparative Example 2, leaves unshaded, no inhibition of transpiration, FIG. 12): very little of the substance had been introduced
- amount of substance introduction (RI accumulation / nitric acid absorption at the node) (Example 1, all leaves of the absorbing side branch removed, versus Comparative Example 1 with leaves, observed for 1 hour, FIG. 9): over twice
- migration of the substance in the main stem (integrated image) (Example 1, leaves of the side branch removed, FIG. 8): Upward migration was also confirmed in the main stem
- amount of substance introduction (RI accumulation at the node) (Example 2, leaves of the absorbing side branch shaded with aluminum foil, versus Comparative Example 2 unshaded, FIG. 13): over twice
- migration of the substance in the main stem (integrated image) (Example 2, leaves shaded to inhibit transpiration, FIG. 11): upward migration occurred in the main stem
- introduction of the substance into the plant (integrated image) (Example 4, sieve tubes of the side branch eliminated by heating at about 100° C., vessels alone, FIG. 16): the substance had been introduced into the plant
